Assay [1] addresses T1, MMP-13CD (catalytic domain of collagenase 3) (Homo sapiens, UniProt P45452). Put plainly: biochemical.
The target in assay [2] is T2, MMP-1FL (full-length interstitial collagenase) (Homo sapiens, UniProt P03956).
T2 sequence (P03956 100-469): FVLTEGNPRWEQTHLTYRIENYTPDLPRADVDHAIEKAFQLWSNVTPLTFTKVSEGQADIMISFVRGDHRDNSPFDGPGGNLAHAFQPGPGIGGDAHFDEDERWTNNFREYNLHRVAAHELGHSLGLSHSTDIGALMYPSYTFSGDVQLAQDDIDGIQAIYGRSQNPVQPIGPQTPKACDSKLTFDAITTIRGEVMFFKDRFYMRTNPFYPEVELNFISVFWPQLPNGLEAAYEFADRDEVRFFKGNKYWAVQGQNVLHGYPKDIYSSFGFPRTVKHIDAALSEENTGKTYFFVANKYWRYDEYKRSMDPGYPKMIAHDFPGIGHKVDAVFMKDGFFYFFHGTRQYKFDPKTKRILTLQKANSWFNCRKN
Put plainly: Thiopeptolide hydrolysis assay, MMP-1. Format: biochemical. The note with it: read-out: MMP01 IC50.

Assay [3] deals with MMP-3CD (catalytic domain of stromelysin) (Homo sapiens, UniProt P08254). Put plainly: Thiopeptolide hydrolysis assay, MMP-3.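 Also: inhibition of thiopeptolide substrate (100 µM) cleavage by the MMP-3 catalytic domain, detected with DTNB at pH 6.0 with CaCl2, hydrolysis compared against runs lacking inhibitor.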 The note with it: read-out: MMP03 IC50. Format: biochemical.
Protocol: They measure the amount by which a test compound reduces the hydrolysis of a thiopeptolide substrate caused by a matrix metalloproteinase enzyme.
Thiopeptolide substrates show virtually no decomposition or hydrolysis in the absence of a matrix metalloproteinase enzyme. A typical thiopeptolide substrate commonly utilized for assays is Ac-Pro-Leu-Gly-thioester-Leu-Leu-Gly-OEt. A 100 μL assay mixture will contain 50 mM of 2-morpholinoethane sulfonic acid monohydrate (MES, pH 6.0) 10 mM CaCl2, 100 μM thiopeptolide substrate, and 1 mM 5,5′-dithio-bis-(2-nitro-benzoic acid) (DTNB). […] Assays are carried out with and without matrix metalloproteinase inhibitor compounds, and the amount of hydrolysis is compared for a determination of inhibitory activity of the test compounds.
Assay [4] addresses T1, MMP-13CD (catalytic domain of collagenase 3). Put plainly: Thiopeptolide hydrolysis assay, MMP-13.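 Also: inhibition of enzymatic thiopeptolide substrate cleavage (100 µM) in pH 6.0 MES buffer with CaCl2 and DTNB, comparing hydrolysis with versus without inhibitor.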

30 compounds from patent US20050004126A1 (priority 2001, published 2005) can be followed below.

Several values for one entry are separate records, joined by “and”; a condition that tells them apart may be missing. Identical values can stand only once. Counter-ions that a name gives are not always drawn. Like-named read-outs stand apart in the source and are kept apart here.

The term IC50 denotes the point on the concentration scale where inhibition reaches its midpoint.

MMP-3CD (catalytic domain of stromelysin), sequence (P08254 100-272 limits assumed): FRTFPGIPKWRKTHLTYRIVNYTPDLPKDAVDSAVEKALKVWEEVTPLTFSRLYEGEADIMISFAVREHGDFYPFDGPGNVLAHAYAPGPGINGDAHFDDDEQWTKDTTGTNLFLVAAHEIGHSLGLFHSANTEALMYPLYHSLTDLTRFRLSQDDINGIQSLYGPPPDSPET

For `Cn1c(=O)c2cc(C(=O)NCc3ccc4c(c3)OCO4)ccc2n(C)c1=O` [1,3-Dimethyl-2,4-dioxo-1,2,3,4-tetrahydroquinazoline-6-carboxylic acid (benzo[1,3]dioxol-5-ylmethyl)amide], half-maximal inhibition in assay [1] (IC50) required 1.7 µM.
As to `Cn1c(=O)n(CCc2ccccc2)c(=O)c2cc(C(=O)NCc3ccc4c(c3)OCO4)ccc21` [1-Methyl-2,4-dioxo-3-phenethyl-1,2,3,4-tetrahydroquinazoline-6-carboxylic acid (benzo[1,3]dioxol-5-ylmethyl)amide], half-maximal inhibition in assay [1] (IC50) required 0.7 µM.
In assay [1], `Cn1c(=O)n(Cc2cccs2)c(=O)c2cc(C(=O)NCc3ccccc3)ccc21` [1-Methyl-2,4-dioxo-3-thien-2-ylmethyl-1,2,3,4-tetrahydroquinazoline-6-carboxylic acid benzylamide] displayed an IC50 of 0.096 µM.
For the compound `O=C(NCc1ccc2c(c1)OCO2)c1ccc2[nH]c(=O)n(Cc3ccncc3)c(=O)c2c1` [2,4-Dioxo-3-pyrid-4-ylmethyl-1,2,3,4-tetrahydroquinazoline-6-carboxylic acid (benzo[1,3]dioxol-5-ylmethyl)amide], in assay [1], the IC50 is 0.051 µM.
Consider `O=C(NCc1ccccc1)c1ccc2[nH]c(=O)n(Cc3cccs3)c(=O)c2c1` [2,4-Dioxo-3-thien-2-ylmethyl-1,2,3,4-tetrahydroquinazoline-6-carboxylic acid benzylamide], for which the half-maximal inhibitory concentration (IC50) in assay [1] came to 0.3 µM.
As for `O=C(NCc1ccc2c(c1)OCO2)c1ccc2c(c1)c(=O)n(Cc1ccccc1)c(=O)n2CC1CC1` [3-Benzyl-1-cyclopropylmethyl-2,4-dioxo-1,2,3,4-tetrahydroquin-azoline-6-carboxylic acid (benzo[1,3]dioxol-5-ylmethyl)amide], the IC50 in assay [1] turned out to be 0.157 µM.
On to `COc1ccc(C(=O)NCc2ccc3c(c2)OCO3)cc1C(=O)NCc1ccc2c(c1)OCO2` [N,N′-Bis-1,3-benzodioxol-5-ylmethyl-4-methoxy-isophthalamide], for which the IC50 in assay [2] (Table II) is greater than 100 µM; in assay [3] (Table II) it was 50 µM; in assay [4] (MMP13 IC50 (nM), Table II) it was 185 nM.
For `O=C(NCc1cccc(Cl)c1)c1cccc(C(=O)NCc2cccc(Cl)c2)c1` [N,N′-Bis-(3-chloro-benzyl)-isophthalamide], the IC50 in assay [2] (Table II) is greater than 100 µM; in assay [3] (Table II), 20 µM; in assay [4] (MMP13 IC50 (nM), Table II), 2300 nM.
Regarding `O=C(NCc1cccc(F)c1)c1cccc(C(=O)NCc2cccc(F)c2)c1` [N,N′-Bis-(3-fluoro-benzyl)-isophthalamide], the IC50 in assay [2] (Table II) was greater than 100 µM; in assay [3] (Table II) it was greater than 100 µM; in assay [4] (MMP13 IC50 (nM), Table II) it was 5650 nM.
`COc1cccc(CNC(=O)c2cccc(C(=O)NCc3cccc(OC)c3)c2)c1` [N,N′-Bis-(3-methoxy-benzyl)-isophthalamide]: the IC50 in assay [2] (Table II) is greater than 100 µM; in assay [3] (Table II), greater than 100 µM; in assay [4] (MMP13 IC50 (nM), Table II), 1350 nM.
In the case of `O=C(NCc1ccc(Cl)cc1)c1cccc(C(=O)NCc2ccc(Cl)cc2)c1` [N,N′-Bis-(4-chloro-benzyl)-isophthalamide], the IC50 in assay [2] (Table II) turned out to be 79 µM; in assay [3] (Table II) it was 9.4 µM; in assay [4] (MMP13 IC50 (nM), Table II) it was 5500 nM.
As for `COc1cc(CNC(=O)c2cccc(C(=O)NCc3ccc(F)c(OC)c3)c2)ccc1F` [N,N′-Bis-(4-fluoro-3-methoxy-benzyl)-isophthalamide], the IC50 in assay [2] (Table II) was greater than 100 µM; in assay [3] (Table II), greater than 100 µM; in assay [4] (MMP13 IC50 (nM), Table II) it was 930 nM.
Regarding `O=C(NCc1ccc(F)cc1)c1cccc(C(=O)NCc2ccc(F)cc2)c1` [N,N′-Bis-(4-fluoro-benzyl)-isophthalamide], the IC50 in assay [2] (Table II) was greater than 100 µM; in assay [3] (Table II), greater than 100 µM; in assay [4] (MMP13 IC50 (nM), Table II) it was 2350 nM.
With `COc1ccc(CNC(=O)c2cccc(C(=O)NCc3ccc(OC)cc3)c2)cc1` [N,N′-Bis-(4-methoxy-benzyl)-isophthalamide], the IC50 in assay [2] (Table II) is greater than 100 µM; in assay [3] (Table II), greater than 100 µM; in assay [4] (MMP13 IC50 (nM), Table II), 1000 nM and 2740 nM.
For the compound `COc1ccc(C(=O)NCc2ccccc2)cc1C(=O)NCc1ccccc1` [N,N′-Dibenzyl-4-methoxy-isophthalamide], the IC50 in assay [2] (Table II) was greater than 100 µM; in assay [3] (Table II), greater than 100 µM; in assay [4] (MMP13 IC50 (nM), Table II), 1800 nM and 1100 nM.
With `COc1ccc(CNC(=O)c2cccc(C(=O)NCc3ccccc3)c2)cc1` [N-Benzyl-N′-(4-methoxy-benzyl)-isophthalamide], the IC50 in assay [2] (Table II) is greater than 100 µM; in assay [3] (Table II), greater than 100 µM; in assay [4] (MMP13 IC50 (nM), Table II), 2420 nM.
Take `Cc1c(=O)n(Cc2ccc(C(=O)OCCN(C)C)cc2)c(=O)n2cc(C(=O)NCc3ccncc3)sc12` [dihydrochloride]: the IC50 was greater than 100 µM in assay [2] (Table 1b); greater than 100 µM in assay [3] (Table 1b); 235 nM in assay [4] (MMP13 IC50 (μM), Table 1b).
As to `COc1ccc(CNC(=O)c2cn3c(=O)n(Cc4ccc(C(=O)OCCN(C)C)cc4)c(=O)c(C)c3s2)cc1` [hydrochloride], the IC50 in assay [2] (Table 1b) was greater than 30 µM; in assay [3] (Table 1b) it was greater than 100 µM; in assay [4] (MMP13 IC50 (μM), Table 1b), 45.5 nM.
`Cc1c(=O)n(Cc2ccc(Br)cc2)c(=O)n2cc(C(=O)NCc3ccncc3)sc12` [hydrochloride]: the IC50 in assay [2] (Table 1b) was greater than 30 µM; in assay [3] (Table 1b), greater than 30 µM; in assay [4] (MMP13 IC50 (μM), Table 1b) it was 36.5 nM.
On to `Cc1c(=O)n(Cc2ccc(C#N)cc2)c(=O)n2cc(C(=O)NCc3ccncc3)sc12` [hydrochloride], for which the IC50 in assay [2] (Table 1b) was greater than 30 µM; in assay [3] (Table 1b), greater than 30 µM; in assay [4] (MMP13 IC50 (μM), Table 1b), 54.7 nM.
In the case of `Cc1c(=O)n(Cc2ccc(C(=O)N3CCOCC3)cc2)c(=O)n2cc(C(=O)NCc3ccncc3)sc12` [hydrochloride], the IC50 is greater than 100 µM in assay [2] (Table 1b); greater than 100 µM in assay [3] (Table 1b); 37 nM in assay [4] (MMP13 IC50 (μM), Table 1b).
As to `Cc1c(=O)n(Cc2ccc(C(=O)OCCN(C)C)cc2)c(=O)n2cc(C(=O)NCc3ccc(F)cc3)sc12` [hydrochloride], the IC50 was greater than 30 µM in assay [2] (Table 1b); greater than 100 µM in assay [3] (Table 1b); 71 nM in assay [4] (MMP13 IC50 (μM), Table 1b).
`Cc1c(=O)n(Cc2ccc(F)cc2)c(=O)n2cc(C(=O)NCc3ccncc3)sc12` [hydrochloride]: the IC50 was greater than 30 µM in assay [2] (Table 1b); greater than 30 µM in assay [3] (Table 1b); 60.5 nM in assay [4] (MMP13 IC50 (μM), Table 1b).
For `Cc1c(=O)n(Cc2ccc(S(N)(=O)=O)cc2)c(=O)n2cc(C(=O)NCc3ccncc3)sc12` [hydrochloride], the IC50 in assay [2] (Table 1b) is greater than 30 µM; in assay [3] (Table 1b), greater than 100 µM; in assay [4] (MMP13 IC50 (μM), Table 1b), 46.3 nM.
Regarding `Cc1c(=O)n(Cc2cccc(C#N)c2)c(=O)n2cc(C(=O)NCc3ccncc3)sc12` [hydrochloride], the IC50 in assay [2] (Table 1b) was greater than 30 µM; in assay [3] (Table 1b), greater than 30 µM; in assay [4] (MMP13 IC50 (μM), Table 1b), 173 nM.
In the case of `Cc1c(=O)n(Cc2ccccc2)c(=O)n2cc(C(=O)NCc3ccncc3)sc12` [hydrochloride], the IC50 in assay [2] (Table 1b) was greater than 30 µM; in assay [3] (Table 1b), greater than 30 µM; in assay [4] (MMP13 IC50 (μM), Table 1b) it was 48.7 nM.
For `Cc1c(=O)n(Cc2nccs2)c(=O)n2cc(C(=O)NCc3ccc(F)cc3)sc12` [hydrochloride], the IC50 in assay [2] (Table 1b) was greater than 100 µM; in assay [3] (Table 1b) it was greater than 30 µM; in assay [4] (MMP13 IC50 (μM), Table 1b), 530 nM.
`O=C(NCc1ccccc1)c1cn2c(=O)n(Cc3ccncc3)c(=O)cc2s1` [hydrochloride]: the IC50 is greater than 100 µM in assay [2] (Table 1b); greater than 100 µM in assay [3] (Table 1b); 1800 nM in assay [4] (MMP13 IC50 (μM), Table 1b).
Take `O=C(NCc1ccncc1)c1cn2c(=O)n(Cc3ccccc3)c(=O)cc2s1` [hydrochloride]: the IC50 in assay [2] (Table 1b) was greater than 100 µM; in assay [3] (Table 1b), 68 µM; in assay [4] (MMP13 IC50 (μM), Table 1b), 490 nM.
`COc1ccc(CNC(=O)c2cn3c(=O)n(Cc4ccc(C(=O)O)cc4)c(=O)c(C)c3s2)cc1` [sodium salt]: the IC50 was greater than 100 µM in assay [2] (Table 1b); 36 µM in assay [3] (Table 1b); 1.75 nM in assay [4] (MMP13 IC50 (μM), Table 1b).
